# Assays:
# [1] = test system: mechanical pain sensitivity; experiment: SNL model (L5 spinal nerve ligation), Von Frey mechanical pain sensitivity; type: in vivo, ICR mice
# Description: Experimental material: The experimental animals used in this experiment are male ICR mice, with an initial weight of 30±2 g and SPF grade. The feeding environment of the mice is room temperature of 22±2° C., and the humidity is controlled at 70%-80%. Mice were free to drink water and eat, and fed with normal feed.
# Experimental method: Preparation of animal model: Establishment of SNL model of ligation of the fifth spinal nerve on the left lumbar vertebra in mice: After the animals were anesthetized with isoflurane, the L5 transverse process on the left back was exposed, the L5 nerve was dissociated and ligated with No.6 ophthalmic thread, and the wound was treated with penicillin and then sutured. In Sham group, only L5 transverse process was exposed without nerve ligation. After the model was established, the behavior of mice was observed, and the individuals with impaired motor behavior were excluded. […] Grouping and administration: Mice were randomly divided into Sham group, model group and AEA group (20 mg/kg/day), with 8 mice in each group. The three groups were administered by gavage for 16 d, wherein the Sham group and model group were given the same volume of distilled water by gavage. Von Frey method was used to detect the mechanical pain sensitivity of mice: after administration, the mice were placed in an organic glass box in a quiet room to adapt for 1.5 h, so that the mice were in a resting state. Von Frey fibers were used to continuously stimulate the L5 nerve reflex area on the sole of the operated hind limb for 3˜4 s, and the test was conducted for 4 times, with an interval of 5 min each time, and the threshold of 50% mechanical foot retraction of the hind paw was recorded.
# Bacteroides/Firmicutes = experiment: Relative abundance ratio of Bacteroides and Firmicutes in feces of high-fat diet mice (16S rDNA sequencing); type: in vivo; conditions: obese mice induced by high-fat diet, AEA 20 mg/kg once a day, four weeks
# Description: (§1) After a week of adaptive feeding, mice were randomly divided into three groups according to sex and weight: group 1, normal group, n=10; group 2, high-fat diet group, n=10; and group 3, high-fat diet+AEA group, n=10. The normal group was given normal feed, while the high-fat diet group was given high-fat and high-sugar feed (containing 35% fat, 18% protein and 47% carbohydrate), and the high-fat diet+AEA group was given high-fat and high-sugar feed containing AEA (20 mg/kg), for four weeks. The specific gavage scheme is: calculate and gavage once a day according to the weight of mice, while the normal group gavage with the same amount of normal saline. Four samples of mouse feces were randomly taken from each group. The samples were first extracted for DNA, 16S rDNA was amplified by PCR, and then sequenced, and the relative abundance of each strain was analyzed.
# Abundance ratio of Bacteroides and Firmicutes: Bacteroides is the representative of intestinal probiotics and Firmicutes is the representative of intestinal harmful bacteria. The higher the ratio, the healthier the intestinal flora is.
# Bacteroides = experiment: Relative abundance of Bacteroides in feces of high-fat diet mice (16S rDNA sequencing); type: in vivo; conditions: obese mice induced by high-fat diet, AEA 20 mg/kg once a day, four weeks
# Description: as §1
# (§2) FIG. 2 is a graph showing changes in the relative abundance of Roseburia. […] FIG. 3 is a graph showing changes in the relative abundance of Bacteroides. […] After AEA treatment, the level of Bacteroides in obese mice induced by high-fat diet increased by 20%. FIG. 4 is a graph showing changes in the relative abundance of Prevotella. […] After AEA treatment, the level of Prevotella in obese mice induced by high-fat diet increased by 25%. FIG. 5 is a graph showing changes in the relative abundance of Salmonella. […]
# Salmonella = experiment: Relative abundance of Salmonella in feces of high-fat diet mice (16S rDNA sequencing); type: in vivo; conditions: obese mice induced by high-fat diet, AEA 20 mg/kg once a day, four weeks
# Description: as §1, §2
# acute colitis model = experiment: DSS-induced acute colitis model, disease activity index (DAI); type: in vivo, mice; conditions: 3% DSS for 9 days, AEA daily dose 2.5 mg/kg; model group close to 3
# Description: Experimental method: Thirty 4-6-week-old mice, 15 males and 15 females, were selected for adaptive feeding for 7 days in advance. They were randomly divided into control group (CON), model group (DSS) and administration group (DSS+AEA), with 10 mice in each group. The model group and the administration group were gavaged with 3% dextran sodium sulfate (DSS) for 9 days to establish an acute colitis model, while the control group was gavaged with the same amount of normal saline every day. The weight, feces and rectal bleeding of mice were recorded every day, and the disease activity index (DAI) was used to evaluate the condition of colitis. The DAI value was obtained by adding all the scores and dividing them by three. Mice in the administration group were given AEA at a daily dose of 2.5 mg/kg. On the 10th day, blood was taken from the orbit of each mouse, and then it was killed. Colon tissues were collected, fixed in 4% paraformaldehyde solution and stored at −80° C. for subsequent analysis. The pathological damage of colon tissue was examined by hematoxylin-eosin staining and Alxin blue staining.
# Prevotella = experiment: Relative abundance of Prevotella in feces of high-fat diet mice (16S rDNA sequencing); type: in vivo; conditions: obese mice induced by high-fat diet, AEA 20 mg/kg once a day, four weeks
# Description: as §1, §2
# Escherichia coli = experiment: Relative abundance of Escherichia coli in feces of high-fat diet mice (16S rDNA sequencing); type: in vivo; conditions: obese mice induced by high-fat diet, AEA 20 mg/kg once a day, four weeks
# Description: as §1, §2
# Roseburia = experiment: Relative abundance of Roseburia in feces of high-fat diet mice (16S rDNA sequencing); type: in vivo; conditions: high-fat+AEA group, AEA 20 mg/kg once a day, four weeks
# Description: as §1, §2
# [2] = test system: mood and depressive behavior; experiment: Forced swimming test; type: in vivo, C57BL/6J mice; conditions: AEA 20 mg/kg/day
# Description: (§3) Experimental materials: The experimental animals used in this experiment are male C57BL/6J mice, 6 weeks old, with an initial weight of 18-22 g and SPF grade. The feeding environment of the mice is room temperature of 22±1° C. and humidity of 55±10%, and the mice are fed with normal feed. Mice were randomly divided into blank control group and AEA group, with 10 mice in each group. The AEA group was given a dose of 20 mg/kg/day, while the blank control group was given distilled water of the same volume.
# (§4) Experimental method: Tail suspension test and forced swimming test were used to evaluate mood and depressive behavior. Forced swimming test: put a single mouse into a beaker and keep the water temperature at (25±2)° C. The experiment lasted for 6 min, and the immobility time of mice within 4 min was calculated. Tail suspension test: a mouse was fixed at the back ⅓ of the tail end with adhesive tape and hung upside down on an iron bar, with its head 10 cm away from the bottom of the box. The experiment lasted for 6 min, and the immobility time of mice within 4 min was calculated.
# [3] = test system: mood and depressive behavior; experiment: Tail suspension test; type: in vivo, C57BL/6J mice; conditions: AEA 20 mg/kg/day
# Description: as §3, §4
compound,measurement,setting,value
"CCCCC/C=C\C/C=C\C/C=C\C/C=C\CCCC(=O)NCCO [AEA, N-arachidonoyl ethanolamine]",threshold of 50% foot contraction,"[1]; administration 1 d, AEA 20 mg/kg/day by gavage, SNL model 0.005 ± 0.002",0.010 ± 0.010
same,threshold of 50% foot contraction,"[1]; administration 6 d, AEA 20 mg/kg/day by gavage, SNL model 0.019 ± 0.008",0.067 ± 0.013
same,threshold of 50% foot contraction,"[1]; administration 11 d, AEA 20 mg/kg/day by gavage, SNL model 0.018 ± 0.018",0.133 ± 0.023
same,threshold of 50% foot contraction,"[1]; administration 16 d, AEA 20 mg/kg/day by gavage, SNL model 0.020 ± 0.018",0.193 ± 0.002
same,threshold of 50% foot contraction compared with the SNL model (in words),"[1]; after 6 days of administration, AEA 20 mg/kg/day by gavage",increased significantly
same,threshold of 50% foot contraction,[1]; before modeling (baseline),0.323 ± 0.040
same,ratio of Bacteroides/Firmicutes,Bacteroides/Firmicutes,"increased after AEA administration, which was close to the level of normal group"
same,increase of level of Bacteroides after AEA treatment,Bacteroides,20%
same,decrease of Salmonella level after AEA treatment,Salmonella,20%
same,DAI score,acute colitis model,about 2
same,increase of level of Prevotella after AEA treatment,Prevotella,25%
same,decrease of level of Escherichia coli after AEA treatment,Escherichia coli,42%
same,level (relative abundance) of Roseburia,Roseburia,close to that in normal mice
same,"reduction of immobility time compared with the blank group, forced swimming test",[2],23%
same,"reduction of immobility time compared with the blank group, tail suspension test",[3],28%
